The values below come from patent US8440670B2, “Pyridopyrazindione derivative and its use as an antiulcer drug” (Innovative Pharmacology Research OOO (IPHAR), priority 2010, dated 2013).

Like-named read-outs stand apart in the source and are kept apart here.

Data set [1] has as its system basal gastric acid secretion. Briefly: Influence on basal secretion in rats (pylorus ligature). The class given is in vivo. The procedure: 2.1. Studying the influence of the compound on basal secretion in rats.
The study was conducted using male rats weighting 180-200 g. The animals were deprived of food for 24 hours, water access was not limited. Using ether anesthesia their abdomens were opened and a ligature put on the pylorus. […] The studied compound was administered in 100 mg/kg dose as water suspension, with the addition of Tween-80, 60 minutes before the ligature of pylorus. Control animals were given distilled water with the addition of Tween-80. Omeprazole in 50 mg/kg dose and famotidine in 25 and 50 mg/kg doses were used as drugs of comparison.

The format of data set [2] is in vivo. The text has this: Studying the Toxicity (LD50) of Studied Compounds Following Single Administration
In data set [3] the target is T1, H,K-ATPase of rabbit gastric mucosa (Oryctolagus cuniculus, UniProt P27112).
T1 construct: a white layer was seen on the borderline of 4% and 12% Ficoll that was a microsome fraction, enriched with H,K-ATPase; from tissue; host or cells: rabbit gastric (stomach) mucosa microsomes
T1 sequence (P27112 whole entry): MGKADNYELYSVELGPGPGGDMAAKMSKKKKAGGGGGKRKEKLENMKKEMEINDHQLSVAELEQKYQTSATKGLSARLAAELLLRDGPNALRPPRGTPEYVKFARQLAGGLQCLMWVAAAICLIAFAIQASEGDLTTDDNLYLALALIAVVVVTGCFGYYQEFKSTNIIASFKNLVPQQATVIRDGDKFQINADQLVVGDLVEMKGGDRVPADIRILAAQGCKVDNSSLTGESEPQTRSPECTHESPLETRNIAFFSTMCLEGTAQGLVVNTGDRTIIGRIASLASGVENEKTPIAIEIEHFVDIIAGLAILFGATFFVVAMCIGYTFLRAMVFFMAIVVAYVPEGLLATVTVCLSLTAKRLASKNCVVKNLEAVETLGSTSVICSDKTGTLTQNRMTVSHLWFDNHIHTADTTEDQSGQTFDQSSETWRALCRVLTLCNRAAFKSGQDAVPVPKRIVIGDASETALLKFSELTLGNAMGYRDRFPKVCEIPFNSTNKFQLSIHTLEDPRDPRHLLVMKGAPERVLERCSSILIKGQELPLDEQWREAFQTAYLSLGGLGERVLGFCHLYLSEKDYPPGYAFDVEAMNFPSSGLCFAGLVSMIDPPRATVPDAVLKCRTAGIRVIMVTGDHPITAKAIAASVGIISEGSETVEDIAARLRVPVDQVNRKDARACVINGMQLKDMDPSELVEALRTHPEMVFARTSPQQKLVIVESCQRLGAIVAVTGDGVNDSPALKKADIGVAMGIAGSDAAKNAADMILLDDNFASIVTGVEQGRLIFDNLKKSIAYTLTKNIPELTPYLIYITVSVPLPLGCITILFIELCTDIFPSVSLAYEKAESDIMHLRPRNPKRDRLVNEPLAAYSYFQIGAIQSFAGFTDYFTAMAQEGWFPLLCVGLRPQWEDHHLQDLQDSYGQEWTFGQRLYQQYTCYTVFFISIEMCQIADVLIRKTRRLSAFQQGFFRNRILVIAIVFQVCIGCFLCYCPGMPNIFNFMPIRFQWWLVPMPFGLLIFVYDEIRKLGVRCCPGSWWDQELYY
T1 sequence (P18597 whole entry partner): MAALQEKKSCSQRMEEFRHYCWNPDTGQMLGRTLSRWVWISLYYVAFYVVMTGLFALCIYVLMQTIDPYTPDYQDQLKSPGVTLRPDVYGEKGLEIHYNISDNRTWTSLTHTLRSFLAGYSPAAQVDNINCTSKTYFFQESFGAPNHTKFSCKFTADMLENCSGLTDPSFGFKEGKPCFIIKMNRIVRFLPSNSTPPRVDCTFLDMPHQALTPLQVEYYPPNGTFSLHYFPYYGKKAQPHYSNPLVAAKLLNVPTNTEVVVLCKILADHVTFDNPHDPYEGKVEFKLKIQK
The data set can be described thus: Action on enzyme activity of H,K-ATPase of rabbit gastric mucosa (inorganic phosphate from ATP hydrolysis). The class given is biochemical. The note with it: for IC50: read-out: I50, inhibition of H,K-ATPase. The procedure:
Microsome preparation, enriched with H+, K+-ATPase, was produced from the rabbit stomach mucosa using a method proposed by Farley and Faller.
Gastric mucosa was produced from a decapitated rabbit. All operations were carried out in ice. The stomach was cut at the greatest curve line, washed and scrubbed. Obtained mucosa was frozen and kept at −80° C. temperature.
To obtain a microsome preparation enriched with H,K-ATPase, gastric mucosa was defrozen and homogenized in extraction medium (0.25 mol sucrose, 5 mmol PIPES, 20 mmol Tris (THAM), ph 7.4) by a Polytron-class homogenizer (max rotations 30/sec). Mass ratio of tissue to extraction medium—1:20.
The homogenate was then centrifuged for 10 min at 10000 g. The sediment was discarded and supernatant was them centrifuged for 1 hour at 100000 g. The produced sediment was re-suspended in extraction medium (using the minimal volume necessary for re-suspension). The suspension was layered above Ficoll 400, prepared in the extraction medium: 12% Ficoll solution, 4% Ficoll solution. It was further centrifuged for 180 min at 100000 g. After centrifuging, a white layer was seen on the borderline of 4% and 12% Ficoll that was a microsome fraction, enriched with H,K-ATPase. The fraction was collected, divided into aliquots and kept at −80° C.
The effect was measured by the growth of inorganic phosphate that is produced during ATP hydrolysis. The concentration was measured using Ratbun and Betlah method. The incubation medium contained: 30 mmol imidazole, ph 7.4, 3 mmol MgCl2, 130 mmol NaCl, 20 mmol KCl, 3 mmol ATP, 2 mmol ouabain, 0.1 mmol EGTA, 2.25 μmol valinomycin, 5 mmol NaN3, 5 μmol of CCCP (Carbonyl cyanide m-chlorophenyl hydrazone).
Incubation medium and defrozen and homogenized microsome fraction were added into incubation sample. The sample was incubated for 20 min at 37° C., then the reaction was stopped by a cold stop-solution (3 mol sodium acetate, 3.7% formaldehyde, pH 4.3).
To evaluate the content of phosphate, produced during enzymatic hydrolysis of ATP, 2% ammonium molybdate solution and tin chloride solution (3 mg/ml) was into the sample. After the appearance of blue color, after 15 minutes, the samples were studied by colorimetry using wavelength of 650 nm
The H,K-ATPase activity was determined as activity inhibited by 0.1 mmol SCH-28080. […] The concentration of the studied compound was varied in range of 10^−8 to 10^−4 mol.
Possible competition between compound I and potassium ions was studied. To achieve this, the relation of H,K-ATPase and KCl concentration was studied, and then the inhibitory action of compound I on this enzyme in saturated (20 μmol) and unsaturated (2 μmol) concentrations of KCl was studied.

The test system of a further data set is intestinal peristalsis. Briefly: Intestinal peristalsis study (activated charcoal). Conditions: mice, given 60 minutes before activated charcoal. The class given is in vivo. The procedure:
3.1. Studying intestinal peristalsis.
The studied compounds were administered to male mice (body weight 22-24 g) by a tube into the stomach 60 minutes before the administration of activated charcoal (0.3 ml of 10% suspension into the stomach). After 2 hours the animals were sacrificed by CO2 and the length of small intestine filled with charcoal was measured in cm. Control group animals were administered 0.3 ml of water, cerucal in 25 mg/kg dose was chosen as the drug of comparison.

In data set [4] the test system is stimulated gastric acid secretion. Briefly: Gastric secretion stimulated by histamine, pentagastrin and 1-aminopyrene. The class given is in vivo, rats. Set-up: inhibition of 1-aminopyrene-induced secretion: concentration or dose not given beside the values. The procedure:
2.2. Studying gastric secretion stimulated by histamine, pentagastrin and 1-aminopyrene.
The study was conducted using male rats weighting 180-200 g. The animals were deprived of food for 24 hours, water access was not limited. Before putting a ligature on the pylorus, one group of animals was administered histamine (2.5 mg/kg) subcutaneously, second group was administered pentagastrin ([…]) subcutaneously, third group was administered 1-aminopyrene 1 mg/kg. The studied compound was administered in 100 mg/kg dose as water suspension, with the addition of Tween-80,
1 and 3 hours before the ligature of pylorus. Control animals were given distilled water with the addition of Tween-80. Omeprazole in 50 mg/kg dose and famotidine in 25 and 50 mg/kg doses were used as the drugs of comparison. 4 hours after the operation stomach contents were studied: secretion volume per 100 g of animal mass, gastric acid pH, free hydrochloric acid and general acidity of gastric acid.

A further data set has as its target H,K-ATPase (Homo sapiens, UniProt P20648). Conditions: K+-competitive; read-out: Ki (inhibition constant); cited from earlier work.

Sequence of H,K-ATPase (P20648 whole entry): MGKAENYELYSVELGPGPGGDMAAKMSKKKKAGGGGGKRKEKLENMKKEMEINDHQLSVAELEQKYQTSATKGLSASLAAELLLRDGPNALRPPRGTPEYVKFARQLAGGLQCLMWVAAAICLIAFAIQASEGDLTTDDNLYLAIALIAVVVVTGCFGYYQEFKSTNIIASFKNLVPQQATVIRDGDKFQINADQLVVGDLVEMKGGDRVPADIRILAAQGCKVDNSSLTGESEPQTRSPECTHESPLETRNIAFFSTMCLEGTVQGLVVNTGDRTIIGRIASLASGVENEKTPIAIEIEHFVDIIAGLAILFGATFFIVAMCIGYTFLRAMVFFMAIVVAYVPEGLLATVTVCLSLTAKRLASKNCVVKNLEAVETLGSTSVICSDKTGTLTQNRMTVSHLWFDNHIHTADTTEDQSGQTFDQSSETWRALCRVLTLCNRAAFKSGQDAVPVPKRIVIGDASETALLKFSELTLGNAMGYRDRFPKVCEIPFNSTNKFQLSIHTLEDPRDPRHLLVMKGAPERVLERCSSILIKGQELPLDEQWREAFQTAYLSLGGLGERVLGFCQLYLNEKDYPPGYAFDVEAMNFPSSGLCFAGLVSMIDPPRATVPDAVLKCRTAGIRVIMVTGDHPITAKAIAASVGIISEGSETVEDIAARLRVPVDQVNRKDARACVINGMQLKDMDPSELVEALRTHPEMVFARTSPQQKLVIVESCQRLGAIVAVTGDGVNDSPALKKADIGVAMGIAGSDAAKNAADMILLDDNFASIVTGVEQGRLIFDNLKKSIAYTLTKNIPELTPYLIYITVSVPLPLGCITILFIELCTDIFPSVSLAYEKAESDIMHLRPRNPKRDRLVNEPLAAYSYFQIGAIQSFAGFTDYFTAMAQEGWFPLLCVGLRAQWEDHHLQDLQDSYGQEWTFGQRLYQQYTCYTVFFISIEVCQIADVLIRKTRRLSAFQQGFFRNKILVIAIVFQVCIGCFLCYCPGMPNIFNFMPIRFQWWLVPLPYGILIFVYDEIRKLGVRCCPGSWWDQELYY
Sequence of H,K-ATPase (P51164 whole entry partner): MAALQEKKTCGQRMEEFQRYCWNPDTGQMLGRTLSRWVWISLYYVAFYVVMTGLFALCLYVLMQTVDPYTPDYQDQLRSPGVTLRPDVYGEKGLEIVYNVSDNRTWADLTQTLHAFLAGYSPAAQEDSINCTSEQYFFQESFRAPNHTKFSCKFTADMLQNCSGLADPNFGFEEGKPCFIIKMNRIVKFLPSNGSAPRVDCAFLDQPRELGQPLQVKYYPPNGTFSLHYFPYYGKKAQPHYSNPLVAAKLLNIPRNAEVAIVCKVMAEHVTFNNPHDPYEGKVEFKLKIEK

Turning to `CCOc1ccc(CCN2CC(=O)N3CCCC(C4=CC(=O)C=CC4O)=C3C2=O)cc1` (centres unmarked) [Compound I, 9-(quinonil-2)-2-p-ethoxyphenylethyl-4,5,6,7,8,9,10,11-octahydropyrido[1,2-a]pyrazindione-1,4], the “inhibition of basal gastric acid secretion level” value in data set [1] (100 mg/kg, time not stated) was “does not inhibit basal gastric acid secretion level”. In data set [2] (in vivo), the general toxicity result is recorded as “low-toxic”. In addition, the IC50 in data set [3] (2 μmol KCl (unsaturated)) worked out at 10 µM; in data set [3] (20 μmol KCl (saturated)), 1 µM. Moreover, the “competition with K+ ions” value in data set [3] (2 and 20 μmol KCl) is reported as “does not compete with K+ ions”. Also, the “reversibility of effect on H,K-ATPase” value in data set [3] (dilution of enzyme-inhibitor complex) is listed as “reversible”. For the same compound, in the data set on intestinal peristalsis, the “slowing of intestinal peristalsis” value is “does not influence peristalsis”. Moreover, the entries for the “inhibition of histamine-induced secretion” value in data set [4] (after 3 hours) and in data set [4] (one hour after administration) were 57% and 40%, respectively. Moreover, the “inhibition of 1-aminopyrene-induced secretion” value in data set [4] (time not stated) was found to be 50%. For the same compound, in data set [4] (time not stated), the “inhibition of pentagastrin-induced secretion” value is “about 54%”.

The Ki is a dissociation constant, usually derived from enzyme kinetics or from competition with a known ligand. Regarding `CNc1nc2c(C)cccc2c2c1CCN2c1ccccc1C` [SK&F96356], the Ki at H,K-ATPase is 0.07 µM.

In the case of `NC(N)=Nc1nc(CSCCC(N)=NS(N)(=O)=O)cs1` [famotidine], the results for the “inhibition of basal secretion” value in data set [1] (after three hours) and in data set [1] (one hour after administration) were 80% and 56%, respectively. The “slowing of intestinal peristalsis” value with intestinal peristalsis was “does not influence peristalsis”. Also, the results for the “inhibition of 1-aminopyrene-induced secretion” value in data set [4] (after 1 hour) and in data set [4] (after 3 hours) were 36% and 40%, respectively. The figures for the “inhibition of histamine-induced secretion” value in data set [4] (after 3 hours) and in data set [4] (one hour after administration) were 95% and 90%, respectively. Besides, in data set [4] (time not stated), the “inhibition of pentagastrin-induced secretion” value is reported as 40%.

Turning to `COc1ccc2[nH]c([S+]([O-])Cc3ncc(C)c(OC)c3C)nc2c1` (centres unmarked) [omeprazole], the “inhibition of basal secretion” value in data set [1] (after three hours) was found to be 40%; in data set [1] (one hour after administration), 25%. Also, in data set [2] (single administration), the general toxicity result is on record as “low-toxic”. For the same compound, in the data set on intestinal peristalsis, the “slowing of intestinal peristalsis” value amounted to 35%. Moreover, the figures for the “inhibition of histamine-induced secretion” value in data set [4] (after 3 hours) and in data set [4] (one hour after administration) were 80% and 70%, respectively. The “inhibition of 1-aminopyrene-induced secretion” value in data set [4] (time not stated) is listed as “about 90%”. In data set [4] (time not stated), the “inhibition of pentagastrin-induced secretion” value was “about 90%”.

As to SCH-28080, the “inhibition of H,K-ATPase activity” value in data set [3] (0.1 mmol inhibitor) is listed as “about 30%”.
